Results taken from patent EP3891153B1, “NAPHTHALIMIDOFURANS FOR APPLICATIONS IN MOLECULAR BIOLOGY” (Univerzita Karlova, 1. Lékarská Fakulta, priority 2018, dated 2020).

Experiment: UV/VIS and fluorescence studies (spectral properties of the probes in four solvents)
Format: physicochemical
Conditions: for Absorbance maxima (nm) / Emission maxima (nm): 1 µM or 0,1 µM; for fluorescence intensities: compared with probes 2 and 4 with pyranone motive
Description: Spectral properties of fluorescent probes 2, 4, 6, 8 and 10 (2 and 4 are for reference only) Spectral characteristics of probes were obtained by using a UV/VIS and fluorescence studies. The probes were measured in four solvents (DMSO, methanol, ethanol and phosphate buffer). Each LysoSers was at first dissolved in DMSO 1mM stock solution which was diluted to a final concentration 1 µM or 0,1 µM.
All prepared probes have absorption maximum in the ultraviolet range of 350-400 nm and emission maximum in the range of 400 to 450 nm. […] Table 1. Absorption and emission maxima of probes 2, 4, 6, 8 and 10 in different solvents (probes 2 and 4 are for reference only)

Compound	Absorbance maxima (nm) (solvent DMSO)	Emission maxima (nm) (solvent DMSO)	Absorbance maxima (nm) (solvent EtOH)	Emission maxima (nm) (solvent EtOH)	Absorbance maxima (nm) (solvent MeOH)	Emission maxima (nm) (solvent MeOH)	Absorbance maxima (nm) (solvent PBS)	Emission maxima (nm) (solvent PBS)	fluorescence intensities
CCCCCCN1C(=O)c2cccc3c2c(cc2oc(=O)c(C(=O)NCCN(C)C)cc23)C1=O [Probe 2]	379	440	388	448	387	442	389	448	
CCCCCCN1C(=O)c2cccc3c2c(cc2cc(C(=O)NCCN(C)C)c(=O)oc23)C1=O [Probe 4]	368	432	319	434	317	435	320	437	
CCCCCCN1C(=O)c2cccc3c2c(cc2oc(C(=O)NCCN(C)C)cc23)C1=O [Probe 6]	373	424	376	422	373	421	373	429	higher fluorescence intensities
CCCCCCN1C(=O)c2cccc3c2c(cc2cc(C(=O)NCCN(C)C)oc23)C1=O [Probe 8]	368	416	341	415	341	416	360	428	higher fluorescence intensities
CN(C)CCNC(=O)c1cc2c(cc3c4c(cccc42)C(=O)N(C)C3=O)o1 [Probe 10]	377	435	365	410	372	420	377	431	higher fluorescence intensities
